Laboratory results taken from patent publication US20250134870A1, “PATHWAY MODULATOR, PHARMACEUTICAL COMPOSITION HAVING SAME, USE THEREOF, AND THERAPEUTIC METHOD USING SAME” (Jiangsu Yahong Meditech Co., Ltd., priority 2021, published 2025).

Legend:
[1] = test system: systolic and diastolic blood pressure; details: 200 mg, phase II clinical study, cited from earlier work
[2] = test system: dextran sulfate sodium (DSS)-induced colitis; experiment: DSS-induced colitis in mice: body weight, DAI score, colon density (Examples 1, 3); format: in vivo, C57BL/6J mice; details: for Colon density: experimental endpoint
Description: 8-10 week old female C57BL/6J mice purchased from Charles River Laboratories were used. The mice were housed in a room at constant temperature (20+2° C.) (5 mice per cage) with a 12-hour light-dark cycle. All protocols were approved by the Institutional Animal Care and Use Committee of WuXi AppTec. These mice were adapted to the housing conditions at the animal experiment center of WuXi AppTec for at least three days prior to the experiment. […] At the experimental endpoint (see hereinafter), mice were euthanized and endpoint samples were obtained. Mice in the normal group were not given 3% DSS aqueous solution to induce colitis and were free to drink blank water. […] The animal body weight and DAI score were assessed under double-blind conditions, that is, the researchers collected the body weight data of mice and observed and scored the stool characteristics and blood stools every day, without knowing the group and dosing regimen. The DAI score was the sum of the weight loss score, stool score and bleeding score. […] The data were analyzed by analysis of variance, specifically by using the following process: using Graph Pad Prism 6.0 software to carry out post-hoc Dunnett's multiple comparison test. […] Data were expressed as mean±S.E.M. The experimental endpoint was 24 hours after administration on Day 8 for the positive drug control group and the Test group 1 #to Test group 7 #of Example 1; the experimental endpoint of the normal group and the solvent group was the same as that of the positive drug control group and Test group 1 #to Test group 7 #.

[3] = test system: norepinephrine level; details: cited from earlier work
[4] = test system: dextran sulfate sodium (DSS)-induced colitis; experiment: DSS-induced colitis in mice, 3.1% DSS: body weight change and DAI (Example 11); format: in vivo, C57BL/6 mice; details: 100 mg/kg, qd
Text: The experimental mice were housed in an SPF grade animal room for three days for adaptation, and randomly divided into 7 groups (6 model groups and 1 control group) of 10 mice in each group. Dosing of mice started on Day 0 and ended on Day 7.
The mouse enteritis model of this Example was established by DSS induction: mice in the model group were provided with a 3.1% DSS (dextran sulfate sodium, molecular weight 36,000-50,000) aqueous solution from Day 0 to Day 7, and the DSS aqueous solution was replaced with freshly prepared solution every day to prevent degradation. Mice in the normal control group were provided with normal water. The experimental period was 9 days, and the mice were euthanized and samples were collected at the experimental endpoint.
The DAI score was assessed daily. The DAI score consisted of 3 parts: body weight change, stool characteristics, and hematochezia (or occult blood) score, and the specific scoring criteria were as shown in Table 49. The DAI scoring of all mice was done by the same staff throughout the experiment.
Mice were euthanized at the experimental endpoint. The colon of mice was dissected, and photograph was taken, the length was measured, and the contents were removed before weighing.
The data were expressed as mean±standard error (X±s). Body weight change and disease activity score were statistically analyzed by two-way ANOVA and comparison between groups were performed by Dunnett's test. Other data were statistically analyzed by one-way ANOVA and comparison between groups were performed by Dunnett's test. All analyses were performed using GraphPad Prism software. * P<0.05, ** P<0.01, *** P<0.005, **** P<0.0001 vs. solvent group.

[5] = test system: bleomycin-induced skin fibrosis; experiment: Bleomycin-induced skin fibrosis in mice: skin histopathology (dermal thickness, capillary density score, inflammatory cell infiltration score); format: in vivo, male C57BL/6 mice; details: 50 mg/kg PO BID, 28 days
Description: The skin tissue of the lesioned skin was subjected to dehydration, embedding and sectioning according to the pathology SOP, and the tissue was stained by HE and Masson staining. Histopathological analysis was performed according to the following methods:
Masson-stained sections were panoramically scanned by using Nanozomer S210 and the scanned images were subjected to quantitative analysis using Visiopharm VIS6.0 software. The degree of fibrosis was currently represented by the dermal thickness after Masson staining.
The fields of observation was selected in the dermis layer of the lesioned area (the number of fields selected was determined according to the size of the lesioned area) and scored according to the area occupied by capillaries in the area: • 0: No capillary formed • 1: The proportion of capillaries formed was less than 25%; • 2: The proportion of capillaries formed was 25-50%; • 3: The proportion of capillaries formed was 50-75%; • 4: The proportion of capillaries formed was greater than 75%. 3.8.3 Inflammatory cell infiltration score of dermis layer
The fields of observation was selected in the dermis layer of the lesioned area (the number of fields selected was determined according to the size of the lesioned area) and scored according to the degree of inflammatory cell infiltration: • 0: No inflammatory cell infiltration: • 1: A small amount of focal inflammatory cell infiltration; • 2: Scattered diffuse inflammatory cell infiltration: • 3: A large amount of diffuse inflammatory cell infiltration; • 4: A large amount of agglomerated inflammatory cell infiltration.

[6] = test system: imiquimod (IMQ)-induced psoriasis; experiment: Imiquimod (IMQ)-induced psoriasis in mice: erythema, scales, thickness, total score, AUC (Example 8); format: in vivo, Balb/c mice; parameters: key to erythema score / scales score / thickness score: 0 = none, 1 = mild, 2 = moderate, 3 = obvious/severe; key to total score of erythema + scales + thickness: sum of three 0-3 scores (erythema + scales + thickening), 0-9; details: for erythema score / scales score: BID × 2 days; for thickness score / total score of erythema + scales + thickness: positive control group
Description: All mice were shaved with a pet shaver to get an area of 2×3 cm on the back one day before the start of the experiment.
65 animals were randomly divided into groups according to body weight, and the dosing regimen was as follows.
Imiquimod (IMQ) cream: 62.5 mg of IMQ cream for each mouse in G2 to G7; Dexamethasone (DEX) ointment: 70 mg of ointment for each mouse in G4;
Tofacitinib: Tofacitinib was dissolved in dimethyl sulfoxide to 5 mg/mL, and 50 μL was added to IMQ cream for daily treatment.
Mice in Groups 2 to 7 received daily topical doses of 62.5 mg of IMQ cream on their shaved back from Day 0 to Day 7.
Dosing of the test compounds and reference substance was carried out according to Table 29 for 7 consecutive days.
To assess the severity of inflammation of skin on the back, the skin on the back was scored according to Table 30. Erythema, scales and thickening were scored independently on a scale of 0 to 3, 0, none; 1. mild; 2. moderate; 3. obvious/severe.
The inhibition rate was calculated according to the following formula: Inhibition rate=[AUC (solvent)−AUC (treatment)]/AUC (solvent)×100%. Wherein, solvent referred to the solvent group corresponding to the route of administration.

[7] = rats with spontaneous hypertension
[8] = Day 0, 12.5 mg/kg topical QD × 5 days
[9] = Day 1, 12.5 mg/kg topical QD × 5 days
[10] = Day 2, 12.5 mg/kg topical QD × 5 days
[11] = Day 3, 12.5 mg/kg topical QD × 5 days
[12] = Day 4, 12.5 mg/kg topical QD × 5 days
[13] = Day 5, 12.5 mg/kg topical QD × 5 days
[14] = Day 6, 12.5 mg/kg topical QD × 5 days
[15] = Day 7, 12.5 mg/kg topical QD × 5 days

Question: With NCCc1c[nH]c(=S)n1[C@H]1COc2c(F)cc(F)cc2C1 [Etamicastat] as the compound, how does the tolerance and safety ([1]; 10 days of treatment) read?
Answer: good tolerance and safety

Question: And the “systolic and diastolic blood pressure” value ([1]; after 10 days of treatment)?
Answer: reduced systolic and diastolic blood pressure in a dose-dependent manner

Question: And the “Body weight on Day 7, g” value ([2]; 10 mg/kg PO QD × 8 days)?
Answer: 19.18 g

Question: And the “Body weight on Day 7/initial body weight, %” value ([2]; 10 mg/kg PO QD × 8 days)?
Answer: 91.92%

Question: And the “Body weight on Day 8, g” value ([2]; 10 mg/kg PO QD × 8 days)?
Answer: 18.20 g

Question: And the “Body weight on Day 8/initial body weight, %” value ([2]; 10 mg/kg PO QD × 8 days)?
Answer: 87.27%

Question: What about the “DAI score on Day 8” value ([2]; 10 mg/kg PO QD × 8 days) of the same compound?
Answer: 6.20

Question: And the “Body weight on Day 7, g” value ([2]; 30 mg/kg PO QD × 8 days)?
Answer: 19.48 g

Question: And the “Body weight on Day 7/initial body weight, %” value ([2]; 30 mg/kg PO QD × 8 days)?
Answer: 92.19%

Question: What about the “Body weight on Day 8, g” value ([2]; 30 mg/kg PO QD × 8 days) of the same compound?
Answer: 18.89 g

Question: And the “Body weight on Day 8/initial body weight, %” value ([2]; 30 mg/kg PO QD × 8 days)?
Answer: 89.13%

Question: And the “DAI score on Day 8” value ([2]; 30 mg/kg PO QD × 8 days)?
Answer: 6.56

Question: What about the “Body weight on Day 7, g” value ([2]; 100 mg/kg PO QD × 8 days) of the same compound?
Answer: 20.08 g

Question: And the “Body weight on Day 8, g” value ([2]; 100 mg/kg PO QD × 8 days)?
Answer: 19.19 g

Question: And the “Body weight on Day 8/initial body weight, %” value ([2]; 100 mg/kg PO QD × 8 days)?
Answer: 91.63%

Question: And the “DAI score on Day 8” value ([2]; 100 mg/kg PO QD × 8 days)?
Answer: 5.00

Question: What about the “severity of DSS-induced colitis and disease activity” value ([2]; Nepicastat 30, Etamicastat 100, Zamicastat 100 mg/kg PO QD × 8 days (Test groups 1#, 4#, 7#) vs solvent group) of the same compound?
Answer: ameliorated the severity of DSS-induced colitis and reduced disease activity

Question: What about the “Colon density” value ([2]; 10 mg/kg PO QD × 8 days) of the same compound?
Answer: 32.24 mg/cm

Question: And the “Colon density” value ([2]; 30 mg/kg PO QD × 8 days)?
Answer: 34.23 mg/cm

Question: And the brain-blood-barrier penetration ([3]; compared with Nepicastat)?
Answer: lower levels of brain-blood-barrier penetration

Question: What about the “effect on brain tissue (norepinephrine level)” value [3, 7] of the same compound?
Answer: no effect on brain tissue

Question: What about the “norepinephrine level in peripheral sympathetic innervation tissues” value [3, 7] of the same compound?
Answer: reduce the norepinephrine level in peripheral sympathetic innervation tissues

Question: Which “symptoms caused by DSS-induced colitis (diarrhea, hematochezia)” value [4] does the source give for O=C(O)/C=C/C(=O)O [Fumaric acid] here?
Answer: slightly ameliorate the symptoms of diarrhea and hematochezia

Question: What about the “DSS-induced body weight loss” value ([4]; vs solvent group) of the same compound?
Answer: showed a trend of alleviating DSS-induced body weight loss

Question: And the “disease activity score (DAI)” value ([4]; vs solvent group, relatively obvious on Day 4 and Day 5)?
Answer: slightly improved

Question: With COC(=O)c1ccc2c(c1)NC(=O)/C2=C(\Nc1ccc(N(C)C(=O)CN2CCN(C)CC2)cc1)c1ccccc1 [Nintedanib] as the compound, how does the “inflammatory cell infiltration of the lesioned skin” value [5] read?
Answer: visibly reduce

Question: What about the subdermal capillary hyperplasia [5] of the same compound?
Answer: visibly reduce

Question: Which “efficacy on clinical score” value ([6]; 12.5 mg/kg topical QD × 5 days, then BID × 2 days) does the source give for C[C@@H]1CCN(C(=O)CC#N)C[C@@H]1N(C)c1ncnc2[nH]ccc12 [Tofacitinib] here?
Answer: showed efficacy after doubling the dose

Question: What about the erythema score [6, 8] of the same compound?
Answer: 0

Question: And the scales score [6, 8]?
Answer: 0

Question: And the thickness score ([6]; Day 0)?
Answer: 0

Question: And the “total score of erythema + scales + thickness” value (from here on “total score”) ([6]; Day 0)?
Answer: 0

Question: And the erythema score [6, 9]?
Answer: 0

Question: And the scales score [6, 9]?
Answer: 0

Question: What about the thickness score ([6]; Day 1) of the same compound?
Answer: 0.8

Question: And the “total score” value ([6]; Day 1)?
Answer: 0.8

Question: And the erythema score [6, 10]?
Answer: 1.4

Question: What about the scales score [6, 10] of the same compound?
Answer: 0

Question: And the thickness score ([6]; Day 2)?
Answer: 1.4

Question: What about the “total score” value ([6]; Day 2) of the same compound?
Answer: 2.8

Question: And the erythema score [6, 11]?
Answer: 1.9

Question: What about the scales score [6, 11] of the same compound?
Answer: 0.4

Question: What about the thickness score ([6]; Day 3) of the same compound?
Answer: 2.2

Question: What about the “total score” value ([6]; Day 3) of the same compound?
Answer: 4.5

Question: What about the erythema score [6, 12] of the same compound?
Answer: 2.2

Question: What about the scales score [6, 12] of the same compound?
Answer: 0.7

Question: And the thickness score ([6]; Day 4)?
Answer: 2

Question: And the “total score” value ([6]; Day 4)?
Answer: 4.9

Question: And the erythema score [6, 13]?
Answer: 2

Question: And the scales score [6, 13]?
Answer: 1.4

Question: What about the thickness score ([6]; Day 5) of the same compound?
Answer: 2.2

Question: And the “total score” value ([6]; Day 5)?
Answer: 5.6

Question: What about the erythema score [6, 14] of the same compound?
Answer: 1.8

Question: What about the scales score [6, 14] of the same compound?
Answer: 1.3

Question: And the thickness score ([6]; Day 6)?
Answer: 2

Question: What about the “total score” value ([6]; Day 6) of the same compound?
Answer: 5.1

Question: And the erythema score [6, 15]?
Answer: 1.7

Question: And the scales score [6, 15]?
Answer: 1.6

Question: And the thickness score ([6]; Day 7)?
Answer: 1.9

Question: What about the “total score” value ([6]; Day 7) of the same compound?
Answer: 5.2
